Experimental data as given in ChEMBL document CHEMBL3885881, “DrugMatrix”.

Species on record: Rattus norvegicus
Experiment: DrugMatrix - Regimen: Daily Repeat
Assay type: toxicity, organism-based, Sprague-Dawley
Set-up: regimen Daily Repeat, gender Male, age 6-8 weeks
Conditions: in vivo, iv, vehicle 100 % SALINE; for ABSOLUTE BASOPHIL / ABSOLUTE EOSINOPHIL / ABSOLUTE LYMPHOCYTE / ABSOLUTE MONOCYTE / ABSOLUTE SEGMENTED NEUTROPHIL / BASOPHIL / EOSINOPHIL / ERYTHROCYTE COUNT / HEMATOCRIT / HEMOGLOBIN / LEUKOCYTE COUNT / LYMPHOCYTE / MEAN CORPUSCULAR HEMOGLOBIN / MEAN CORPUSCULAR HEMOGLOBIN CONCENTRATION / MEAN CORPUSCULAR VOLUME / MONOCYTE / NEUTROPHIL / NUCLEATED RED BLOOD CELLS / PLATELET COUNT: tissue Blood; for ALANINE AMINOTRANSFERASE / ALBUMIN / ALKALINE PHOSPHATASE / ASPARTATE AMINOTRANSFERASE / BLOOD UREA NITROGEN / CARBON DIOXIDE / CHLORIDE / CHOLESTEROL / CREATINE PHOSPHOKINASE / CREATININE / GLUCOSE / LACTATE DEHYDROGENASE / LIPASE / PHOSPHORUS / POTASSIUM / SODIUM / TOTAL BILIRUBIN / URIC ACID / TOTAL PROTEIN: tissue Plasma
[1] = 400 mg/kg, 72 h, dose level Low, time 3 day
[2] = 400 mg/kg, 120 h, dose level Low, time 5 day
[3] = 1200 mg/kg, 72 h, dose level M1, time 3 day
[4] = 1200 mg/kg, 120 h, dose level M1, time 5 day
[5] = 1800 mg/kg, 72 h, dose level High, time 3 day

## NC(CO)(CO)CO [TROMETHAMINE]
[1]
  ABSOLUTE BASOPHIL: 0 CELLS/uL
  ABSOLUTE EOSINOPHIL: 233.33 CELLS/uL
  ABSOLUTE LYMPHOCYTE: 15317.33 CELLS/uL
  ABSOLUTE MONOCYTE: 347.33 CELLS/uL
  ABSOLUTE SEGMENTED NEUTROPHIL: 1468.67 CELLS/uL
  BASOPHIL: 0%
  EOSINOPHIL: 1.33%
  ERYTHROCYTE COUNT: 5.74 x10E6/uL
  HEMATOCRIT: 36.9%
  HEMOGLOBIN: 13.67 G/DL
  LEUKOCYTE COUNT: 17.37 x10E3/uL
  LYMPHOCYTE: 88.33%
  MEAN CORPUSCULAR HEMOGLOBIN: 23.87 pg
  MEAN CORPUSCULAR HEMOGLOBIN CONCENTRATION: 37.03 G/DL
  MEAN CORPUSCULAR VOLUME: 64.37 fL
  MONOCYTE: 2%
  NEUTROPHIL: 8.33%
  NUCLEATED RED BLOOD CELLS: 0 /100WBC
  PLATELET COUNT: 1402.67 x10E3/uL
  ALANINE AMINOTRANSFERASE: 55.67 u/L
  ALBUMIN: 4.27 G/DL
  ALKALINE PHOSPHATASE: 354.33 u/L
  ASPARTATE AMINOTRANSFERASE: 97 u/L
  BLOOD UREA NITROGEN: 17.67 mg/dL
  CARBON DIOXIDE: 20 mmol/L
  CHLORIDE: 107 MEQ/L
  CHOLESTEROL: 81.67 mg/dL
  CREATINE PHOSPHOKINASE: 249.33 u/L
  CREATININE: 0.23 mg/dL
  GLUCOSE: 184.67 mg/dL
  LACTATE DEHYDROGENASE: 286.33 u/L
  LIPASE: 9.33 u/L
  PHOSPHORUS: 14.23 mg/dL
  POTASSIUM: 7.13 MEQ/L
  SODIUM: 150.03 MEQ/L
  TOTAL BILIRUBIN: 0.23 mg/dL
  URIC ACID: 2.83 mg/dL
[2]
  ABSOLUTE BASOPHIL: 0 CELLS/uL
  ABSOLUTE EOSINOPHIL: 193.67 CELLS/uL
  ABSOLUTE LYMPHOCYTE: 13973.67 CELLS/uL
  ABSOLUTE MONOCYTE: 314 CELLS/uL
  ABSOLUTE SEGMENTED NEUTROPHIL: 1218.67 CELLS/uL
  BASOPHIL: 0%
  EOSINOPHIL: 1.33%
  ERYTHROCYTE COUNT: 5.88 x10E6/uL
  HEMATOCRIT: 36.53%
  HEMOGLOBIN: 13.73 G/DL
  LEUKOCYTE COUNT: 15.7 x10E3/uL
  LYMPHOCYTE: 89%
  MEAN CORPUSCULAR HEMOGLOBIN: 23.33 pg
  MEAN CORPUSCULAR HEMOGLOBIN CONCENTRATION: 37.6 G/DL
  MEAN CORPUSCULAR VOLUME: 62.13 fL
  MONOCYTE: 2%
  NEUTROPHIL: 7.67%
  NUCLEATED RED BLOOD CELLS: 0 /100WBC
  PLATELET COUNT: 1369.33 x10E3/uL
  ALANINE AMINOTRANSFERASE: 59 u/L
  ALBUMIN: 4.13 G/DL
  ALKALINE PHOSPHATASE: 352 u/L
  ASPARTATE AMINOTRANSFERASE: 100.33 u/L
  BLOOD UREA NITROGEN: 18 mg/dL
  CARBON DIOXIDE: 26.67 mmol/L
  CHLORIDE: 105 MEQ/L
  CHOLESTEROL: 63.33 mg/dL
  CREATINE PHOSPHOKINASE: 312.67 u/L
  CREATININE: 0.17 mg/dL
  GLUCOSE: 152 mg/dL
  LACTATE DEHYDROGENASE: 490 u/L
  LIPASE: 8 u/L
  PHOSPHORUS: 13.27 mg/dL
  POTASSIUM: 6.29 MEQ/L
  SODIUM: 147.27 MEQ/L
  TOTAL BILIRUBIN: 0.13 mg/dL
  TOTAL PROTEIN: 6.23 G/DL
  URIC ACID: 1.6 mg/dL
[3]
  ABSOLUTE BASOPHIL: 0 CELLS/uL
  ABSOLUTE EOSINOPHIL: 114.67 CELLS/uL
  ABSOLUTE LYMPHOCYTE: 5662 CELLS/uL
  ABSOLUTE MONOCYTE: 0 CELLS/uL
  ABSOLUTE SEGMENTED NEUTROPHIL: 823.33 CELLS/uL
  BASOPHIL: 0%
  EOSINOPHIL: 1.67%
  ERYTHROCYTE COUNT: 4.96 x10E6/uL
  HEMATOCRIT: 32.13%
  HEMOGLOBIN: 12.23 G/DL
  LEUKOCYTE COUNT: 6.6 x10E3/uL
  LYMPHOCYTE: 86%
  MEAN CORPUSCULAR HEMOGLOBIN: 24.7 pg
  MEAN CORPUSCULAR HEMOGLOBIN CONCENTRATION: 38.17 G/DL
  MEAN CORPUSCULAR VOLUME: 64.73 fL
  MONOCYTE: 0%
  NEUTROPHIL: 12.33%
  NUCLEATED RED BLOOD CELLS: 0 /100WBC
  PLATELET COUNT: 1106 x10E3/uL
  ALANINE AMINOTRANSFERASE: 48.67 u/L
  ALBUMIN: 4.2 G/DL
  ALKALINE PHOSPHATASE: 396.33 u/L
  ASPARTATE AMINOTRANSFERASE: 124 u/L
  BLOOD UREA NITROGEN: 14.67 mg/dL
  CARBON DIOXIDE: 28 mmol/L
  CHLORIDE: 101.67 MEQ/L
  CHOLESTEROL: 82 mg/dL
  CREATINE PHOSPHOKINASE: 177.33 u/L
  CREATININE: 0.16 mg/dL
  GLUCOSE: 166.33 mg/dL
  LACTATE DEHYDROGENASE: 103 u/L
  LIPASE: 8.33 u/L
  PHOSPHORUS: 11.1 mg/dL
  POTASSIUM: 5.72 MEQ/L
  SODIUM: 148.3 MEQ/L
  TOTAL BILIRUBIN: 0.1 mg/dL
  TOTAL PROTEIN: 6.23 G/DL
  URIC ACID: 0.7 mg/dL
[4]
  ABSOLUTE BASOPHIL: 0 CELLS/uL
  ABSOLUTE EOSINOPHIL: 321 CELLS/uL
  ABSOLUTE LYMPHOCYTE: 13922 CELLS/uL
  ABSOLUTE MONOCYTE: 0 CELLS/uL
  ABSOLUTE SEGMENTED NEUTROPHIL: 2357 CELLS/uL
  BASOPHIL: 0%
  EOSINOPHIL: 2%
  ERYTHROCYTE COUNT: 5.71 x10E6/uL
  HEMATOCRIT: 35.9%
  HEMOGLOBIN: 13.45 G/DL
  LEUKOCYTE COUNT: 16.6 x10E3/uL
  LYMPHOCYTE: 84%
  MEAN CORPUSCULAR HEMOGLOBIN: 23.6 pg
  MEAN CORPUSCULAR HEMOGLOBIN CONCENTRATION: 37.45 G/DL
  MEAN CORPUSCULAR VOLUME: 62.95 fL
  MONOCYTE: 0%
  NEUTROPHIL: 14%
  NUCLEATED RED BLOOD CELLS: 0 /100WBC
  PLATELET COUNT: 1326 x10E3/uL
  ALANINE AMINOTRANSFERASE: 51.5 u/L
  ALBUMIN: 4.3 G/DL
  ALKALINE PHOSPHATASE: 460.5 u/L
  ASPARTATE AMINOTRANSFERASE: 147 u/L
  BLOOD UREA NITROGEN: 19.5 mg/dL
  CARBON DIOXIDE: 26.5 mmol/L
  CHLORIDE: 105.5 MEQ/L
  CHOLESTEROL: 61.5 mg/dL
  CREATINE PHOSPHOKINASE: 173 u/L
  CREATININE: 0.2 mg/dL
  GLUCOSE: 161 mg/dL
  LACTATE DEHYDROGENASE: 131.5 u/L
  LIPASE: 7.5 u/L
  PHOSPHORUS: 12.6 mg/dL
  POTASSIUM: 5.85 MEQ/L
  SODIUM: 148.4 MEQ/L
  TOTAL BILIRUBIN: 0.15 mg/dL
  TOTAL PROTEIN: 6.15 G/DL
  URIC ACID: 1.35 mg/dL
[5]
  ABSOLUTE BASOPHIL: 0 CELLS/uL
  ABSOLUTE EOSINOPHIL: 0 CELLS/uL
  ABSOLUTE LYMPHOCYTE: 11188.5 CELLS/uL
  ABSOLUTE MONOCYTE: 305.5 CELLS/uL
  ABSOLUTE SEGMENTED NEUTROPHIL: 3356 CELLS/uL
  BASOPHIL: 0%
  EOSINOPHIL: 0%
  ERYTHROCYTE COUNT: 5.2 x10E6/uL
  HEMATOCRIT: 31.8%
  HEMOGLOBIN: 12.25 G/DL
  LEUKOCYTE COUNT: 14.85 x10E3/uL
  LYMPHOCYTE: 75%
  MEAN CORPUSCULAR HEMOGLOBIN: 23.65 pg
  MEAN CORPUSCULAR HEMOGLOBIN CONCENTRATION: 38.5 G/DL
  MEAN CORPUSCULAR VOLUME: 61.4 fL
  MONOCYTE: 2%
  NEUTROPHIL: 23%
  NUCLEATED RED BLOOD CELLS: 0 /100WBC
  PLATELET COUNT: 1215.5 x10E3/uL
  ALANINE AMINOTRANSFERASE: 64.5 u/L
  ALBUMIN: 4.05 G/DL
  ALKALINE PHOSPHATASE: 290 u/L
  ASPARTATE AMINOTRANSFERASE: 190 u/L
  BLOOD UREA NITROGEN: 19.5 mg/dL
  CARBON DIOXIDE: 24.5 mmol/L
  CHLORIDE: 105.5 MEQ/L
  CHOLESTEROL: 107 mg/dL
  CREATINE PHOSPHOKINASE: 336.5 u/L
  CREATININE: 0.22 mg/dL
  GLUCOSE: 149.5 mg/dL
  LACTATE DEHYDROGENASE: 446 u/L
  LIPASE: 8.5 u/L
  PHOSPHORUS: 13.45 mg/dL
  POTASSIUM: 6.05 MEQ/L
  SODIUM: 147.25 MEQ/L
  TOTAL BILIRUBIN: 0.2 mg/dL
  TOTAL PROTEIN: 6.15 G/DL
  URIC ACID: 0.95 mg/dL
